One compound from patent US20240024372A1, “COMPOUNDS AND METHODS TO TREAT CYSTIC FIBROSIS” (City of Hope, priority 2020, published 2024) can be followed below.

For the assay, the system named is HuBEC cells. As to the kind of experiment: Uptake of BODIPY-labeled exosomes by HuBEC (light microscopy). Format: cell-based, human. The following applies: HuBEC pre-treated with 200 μM Genistein, 37° C., 30 minutes, then BODIPY-labeled MSC-derived CFZF-VPR exosomes 3 h. How it is done:
FIGS. 7A-7B show exosome uptake inhibition. FIG. 7A: To study the pathway of exosome uptake, HuBEC cells were pre-treated with 200 μM of Genistein and incubated at 37° C. for 30 minutes before exosome addition, and then incubated with BODIPY-labeled exosomes at 37° C. for 3 h. FIG. 7B: Uptake was quantified by determining the percentage of BODIPY-fluorescence intensity.
Exosome labeling. Exosomal membrane was labeled with BODIPY TR ceramide, according to the manufacturer's protocol (Molecular Probes/Invitrogen Life Technologies, Carlsbad, California, USA). Briefly, 5e+10 exosomes were stained with 10 μmol/L BODIPY TR ceramide. Excess fluorescent dye was removed by using Exosome Spin Columns (Life Technologies, Carlsbad, California, USA). BODIPY-labeled exosomes were dropped on 10e+3 cells and incubated in exosome depleted medium at 37° C. and 5% CO2. Bodipy-labeled exosomes uptake was evaluated by light microscopy.
Light microscopy and imaging. Cells were cultivated fixed with BD cytofix/Cytoperm™ fixation/permeabilization Kit (Cat. No. 554715 BD bioscience, Franklin Lakes, NJ, USA) at room temperature for 20 minutes and then stained with fluorescent 488-Phalloidin (green) for actin using the manufacturer's recommendations (Molecular Probes/Invitrogen Life Technologies). Fluorescence images were collected on Zeiss LSM-700 confocal microscope. […]

Structures are written as SMILES.

With `O=c1c(-c2ccc(O)cc2)coc2cc(O)cc(O)c12` [genistein], the “inhibition of exosome uptake (BODIPY-fluorescence intensity)” value is reported as “inhibition of the MSC derived CFZF-VPR exosome uptake”.
